Reference: paper PMC2693460 (Cancer chemotherapy and pharmacology, 2009)

Target: T1, ABCG2 (Homo sapiens, UniProt Q9UNQ0)
T1 sequence (Q9UNQ0 1-655): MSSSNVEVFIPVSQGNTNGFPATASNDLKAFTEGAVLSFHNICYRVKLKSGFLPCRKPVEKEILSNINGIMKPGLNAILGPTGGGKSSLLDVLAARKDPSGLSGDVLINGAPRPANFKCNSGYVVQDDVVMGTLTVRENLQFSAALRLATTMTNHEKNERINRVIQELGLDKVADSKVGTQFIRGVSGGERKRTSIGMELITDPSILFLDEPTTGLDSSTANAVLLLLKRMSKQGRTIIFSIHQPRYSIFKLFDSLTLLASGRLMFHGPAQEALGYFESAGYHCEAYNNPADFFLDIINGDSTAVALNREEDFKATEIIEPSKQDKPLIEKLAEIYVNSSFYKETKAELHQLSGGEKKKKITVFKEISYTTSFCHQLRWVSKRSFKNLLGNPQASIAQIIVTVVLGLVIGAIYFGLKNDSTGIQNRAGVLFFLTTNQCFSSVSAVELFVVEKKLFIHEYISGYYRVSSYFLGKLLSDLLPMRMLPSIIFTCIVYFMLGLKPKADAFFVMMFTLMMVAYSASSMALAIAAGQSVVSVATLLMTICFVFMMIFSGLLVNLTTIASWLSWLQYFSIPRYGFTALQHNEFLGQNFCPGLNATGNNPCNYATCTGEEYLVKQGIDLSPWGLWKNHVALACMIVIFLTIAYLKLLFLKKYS
Format: binding

- IC50: 2100 nM
SMILES: CCN(CC)CCN1C(=O)c2c(c3c4cccc(Cl)c4n([C@@H]4O[C@H](CO)[C@@H](OC)[C@H](O)[C@H]4O)c3c3[nH]c4c(Cl)cccc4c23)C1=O [becatecarin]
